Measurements from US5434182A (priority 1993, dated 1995).
“And” between values parts separate entries of the source, which are not always exact repeats. Identical values can stand only once. Like-named read-outs stand apart in the source and are kept apart here.

How the values were obtained:
VSV [1] = assay: microbe, parasite or virus in culture; assay type: cell-based, vesicular stomatitis virus strain Indiana; conditions: for minimal effective concentration: read-out: Lowest concentration causing ≥3.0 log10 reduction in virus titer
HSV-1 = assay: microbe, parasite or virus in culture; assay type: cell-based, herpes simplex virus type 1 strain MacIntyre; conditions: Human alphaherpesvirus 1, 0.5 h; 0.5 mg/ml, 37° C., 30 min; read-out: Reduction of virus titer, HSV-1
Red Blood Cells = assay: Stability of red blood cells in whole human blood to added monoglyceride; assay type: cell-based; conditions: 3 mg/ml
Text: Effect of Added Monoglyceride on RBCs in Human Blood.

Group B streptococcus = assay: Inactivation of bacteria by monoglycerides, Group B streptococcus; assay type: cell-based; conditions: 2 mg/ml, read-out: Reduction of bacterial concentration, Group B streptococcus
VSV [2] = assay: microbe, parasite or virus in culture; assay type: cell-based, vesicular stomatitis virus; conditions: Vesicular stomatitis virus
VSV [3] = assay: microbe, parasite or virus in culture; assay type: cell-based, vesicular stomatitis virus; conditions: for Reduction in VSV titer: 10 mM sodium taurocholate, human plasma; for log reduction at 4000 µM / log reduction at 7500 µM / log reduction at 15000 µM: Vesicular stomatitis virus, read-out: Reduction in VSV titer
Total White Blood Cells = assay: Stability of white blood cells in whole human blood to added lipid; assay type: cell-based; design: unit not given here; conditions: 15 mM, control 6.4
Text: Further testing has shown the effect of monoglyceride esters and ether on the total white blood cell concentration in whole human blood.

Solubility = assay type: physicochemical; conditions: vs 1-monodecanoyl-rac-glycerol
[4] = Vesicular stomatitis virus, 0.5 h
[5] = Vesicular stomatitis virus, 0.5 h, read-out: Reduction of virus titer, VSV
[6] = read-out: Reduction in VSV Titer, 7.5 mM, 0 mM sodium taurocholate, human serum
[7] = read-out: Reduction in VSV Titer, 7.5 mM, 2 mM sodium taurocholate, human serum
[8] = read-out: Reduction in VSV Titer, 7.5 mM, 4 mM sodium taurocholate, human serum
[9] = read-out: Reduction in VSV Titer, 7.5 mM, 6 mM sodium taurocholate, human serum
[10] = read-out: Reduction in VSV Titer, 7.5 mM, 8 mM sodium taurocholate, human serum
[11] = read-out: Reduction in VSV Titer, 7.5 mM, 10 mM sodium taurocholate, human serum
[12] = read-out: Reduction in VSV Titer, 7.5 mM, 12 mM sodium taurocholate, human serum

CCCCCCCCCC(=O)OCC(O)CO (racemic) [Monocaprin (10:0), 1-Monodecanoyl-rac-glycerol]
minimal effective concentration (VSV [1]; [4]): 500 µg/mL and 2000 µM | log reduction at 500 µg/mL (VSV [1]; [5]): ≥ 4 | active concentration relative to corresponding free acids (VSV [1]; monoglyceride vs free acid): ten times lower | log reduction at 500 µg/mL (HSV-1): ≥ 3.7 | lysis of RBCs in whole blood (Red Blood Cells): does not lyse RBCs in whole blood | log reduction at 2000 µg/mL (Group B streptococcus): 4.5 | log reduction at 7500 µM (VSV [2]; [6]): 1 | log reduction at 7500 µM (VSV [2]; [7]): ≥ 5 | log reduction at 7500 µM (VSV [2]; [8]): ≥ 5 | log reduction at 7500 µM (VSV [2]; [9]): ≥ 5 | log reduction at 7500 µM (VSV [2]; [10]): ≥ 5 | log reduction at 7500 µM (VSV [2]; [11]): ≥ 5 | log reduction at 7500 µM (VSV [2]; [12]): ≥ 5 | Reduction in VSV titer (VSV [3]; 4 mM): 1.0 log10 | Reduction in VSV titer (VSV [3]; 7.5 mM): ≥ 4.0 log10 | Reduction in VSV titer (VSV [3]; 15 mM): ≥ 4.0 log10 | log reduction at 4000 µM (VSV [3]): 0 | log reduction at 7500 µM (VSV [3]): 1 | log reduction at 15000 µM (VSV [3]): ≥ 4 | Total White Blood Cells (Total White Blood Cells): 0.7

CCCCCCCC(=O)OCC(O)CO (racemic) [Monocaprylin (8:0), 1-Monocapryloyl-rac-glycerol]
minimal effective concentration (VSV [1]; [4]): 2000 µg/mL and 9000 µM | log reduction at 2000 µg/mL (VSV [1]; [5]): ≥ 4 | log reduction at 7500 µM (VSV [2]; [6]): ≥ 1 | log reduction at 7500 µM (VSV [2]; [7]): ≥ 3 | log reduction at 7500 µM (VSV [2]; [8]): 4 | log reduction at 7500 µM (VSV [2]; [9]): ≥ 5 | log reduction at 7500 µM (VSV [2]; [10]): ≥ 5 | log reduction at 7500 µM (VSV [2]; [11]): ≥ 5 | log reduction at 7500 µM (VSV [2]; [12]): ≥ 5 | Reduction in VSV titer (VSV [3]; 4 mM): 2.0 log10 | Reduction in VSV titer (VSV [3]; 7.5 mM): ≥ 4.0 log10 | Reduction in VSV titer (VSV [3]; 15 mM): ≥ 4.0 log10 | log reduction at 4000 µM (VSV [3]): 0 | log reduction at 7500 µM (VSV [3]): 1 | log reduction at 15000 µM (VSV [3]): 2 | Total White Blood Cells (Total White Blood Cells): 2.4 | solubility in words (Solubility): more soluble
